Measured values: patent publication US5721240A, “9-substituted-8-unsubstituted-9-deazaguanines” (BioCryst Pharmaceuticals, Inc., priority 1996, dated 1998)
pIC50: −log10 of the molar value. Read-outs that look alike come from different tables or passages of the source. One block for each compound: values may come before it.

Experiments:
CCRF-CEM Cells = test: 2'-deoxyguanosine potentiation assay (cell growth inhibition of CCRF-CEM cells with d-Guo); format: cell-based; conditions: Homo sapiens, + 2'-d-Guanosine 5.62 uM, 72 hours
Protocol: The potentiation of the cell growth inhibitory activity (cytotoxicity) of 2'-deoxyguanosine (d-Guo) by the compounds of the invention is determined as follows: CCRF-CEM cells are grown in RPMI-1640 medium. To suspension cultures of these cells, d-Guo at a fixed concentration (5.62 μM) and the candidate PNP inhibitor at varied concentrations are added and the number of cells are determined in a Coulter counter 24, 48, and 72 hours thereafter. […] This method is similar to that previously used to determine the effectiveness of PNP inhibitors on potentiation of the toxicity of d-Guo [D. A. Shewach et al., Cancer Res., 46, 519 (1986); J. C. Sircar et al., Agents and Actions, 21, 253 (1987)].

PNP (Calf spleen) = biological target: T1, PNP (Calf spleen) (Bos taurus, UniProt P55859); test: in vitro PNP inhibition assay (radiochemical, [14C]-hypoxanthine formation from [14C]-inosine); format: biochemical
T1 construct: using calf spleen as the enzyme source; from tissue; host or cells: calf spleen
T1 sequence (P55859 1-289): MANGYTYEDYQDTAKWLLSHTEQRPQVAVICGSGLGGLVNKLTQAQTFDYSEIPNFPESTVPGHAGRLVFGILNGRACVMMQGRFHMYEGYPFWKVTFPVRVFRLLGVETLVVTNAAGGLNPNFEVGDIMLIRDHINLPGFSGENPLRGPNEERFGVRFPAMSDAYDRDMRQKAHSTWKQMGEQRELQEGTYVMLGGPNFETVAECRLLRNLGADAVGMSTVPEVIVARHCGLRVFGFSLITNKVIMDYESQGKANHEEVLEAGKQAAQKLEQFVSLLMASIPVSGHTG

plasma inosine = test: Effects on blood plasma levels of inosine in rats; format: in vivo, Lewis rats; conditions: i.p.; for Inosine Concentration: rat, 4 mg/kg
Protocol: An effective method of evaluating in vivo effects of PNP inhibitors is to evaluate the level of plasma nucleosides following the administration of inhibitor. In particular, it has been shown that certain PNP inhibitors, which increase blood plasma levels of inosine, were subsequently found to prolong skin allograf survival.
Control groups are used which receive only the vehicle. At specific times after administration, the animals are sacrificed and plasma samples are prepared. The plasma is extracted with cold 0.5 N HClO4 and neutralized with solid NH4 HCO3. After removal of perchlorate salts, the extract is subjected to HPLC on a reversed phase column (Spherisorb ODSI).

[1] = read-out: PNP (Calf spleen) IC50
[2] = 8-amino-substituted comparison compounds
[3] = 8-unsubstituted compounds, calf spleen enzyme, 50 mM phosphate, read-out: PNP (Calf spleen) IC50

SMILES: Nc1nc2c(Cc3ccc(Cl)cc3)c[nH]c2c(=O)[nH]1 [Example 2d, 2-Amino-3,5-dihydro-7-(4-chlorophenylmethyl)-4H-pyrrolo[3,2-d]pyrimidin-4-one]
- pIC50 (CCRF-CEM Cells; 8-unsubstituted compounds): 6.15

SMILES: Nc1nc2c(Cc3ccsc3)c[nH]c2c(=O)[nH]1 [Example 2l, 2-Amino-3,5-dihydro-7-(3-thienylmethyl)-4H-pyrrolo-[3,2-d]pyrimidin-4-one]
- pIC50 (PNP (Calf spleen); [1]): 7.10
- pIC50 (CCRF-CEM Cells; 8-unsubstituted compounds): 5.70

SMILES: Nc1nc2c(Cc3cccs3)c[nH]c2c(=O)[nH]1 [Example 2k, 2-Amino-3,5-dihydro-7-(2-thienylmethyl)-4H-pyrrolo-[3,2-d]pyrimidin-4-one]
- pIC50 (CCRF-CEM Cells; 8-unsubstituted compounds): 6.52

SMILES: Nc1nc2c(Cc3ccco3)c[nH]c2c(=O)[nH]1 [Example 2j, 2-Amino-3,5-dihydro-7-(2-furanylmethyl)-4H-pyrrolo-[3,2-d]pyrimidin-4-one]
- pIC50 (PNP (Calf spleen); [1]): 6.51
- pIC50 (CCRF-CEM Cells; 8-unsubstituted compounds): 5.64

SMILES: Nc1nc2c(Cc3ccsc3)c(N)[nH]c2c(=O)[nH]1 [Example 3-Thienyl, reference compound]
- pIC50 (CCRF-CEM Cells; [2]): < 4.70

SMILES: Nc1nc2c(Cc3cccc(O)c3)c[nH]c2c(=O)[nH]1 [Example 3b, 2-amino-3,5-dihydro-7-(3-hydroxyphenylmethyl)-4H-pyrrolo[3,2-d]pyrimidin-4-one]
- pIC50 (CCRF-CEM Cells; 8-unsubstituted compounds): 5.77

SMILES: Nc1nc2c(Cc3ccccc3)c(N)[nH]c2c(=O)[nH]1 [Phenyl, reference compound]
- pIC50 (PNP (Calf spleen)): 5.11
- pIC50 (CCRF-CEM Cells; [2]): < 4.82

SMILES: Nc1nc2c(Cc3ccccc3)c[nH]c2c(=O)[nH]1 [Example 2c, 2-Amino-3,5-dihydro-7-(phenylmethyl)-4H-pyrrolo-[3,2-d]pyrimidin-4-one]
- increase in plasma inosine (plasma inosine; Lewis rats, summary in words): significant increase in plasma inosine
- Inosine Concentration (plasma inosine; 0.50 hrs, Exp 1): 3 μMO
- Inosine Concentration (plasma inosine; 0.50 hrs, Exp 3): 10 μMO
- Inosine Concentration (plasma inosine; 1.0 hrs, Exp 1): 7 μMO
- Inosine Concentration (plasma inosine; 1.0 hrs, Exp 3): 7 μMO
- Inosine Concentration (plasma inosine; 1.5 hrs, Exp 3): 6 μMO
- Inosine Concentration (plasma inosine; 1.5 hrs, Exp 7, listed as SRI 7109, 4 mg/kg): 6 μMO
- Inosine Concentration (plasma inosine; 2.0 hrs, Exp 3): 4 μMO
- Inosine Concentration (plasma inosine; 3.0 hrs, Exp 1): 4 μMO
- Inosine Concentration (plasma inosine; 3.0 hrs, Exp 3): 6 μMO
- Inosine Concentration (plasma inosine; 3.0 hrs, Exp 7, listed as SRI 7109, 4 mg/kg): 6 μMO
- Inosine Concentration (plasma inosine; 4.0 hrs, Exp 2): 3 μMO
- Inosine Concentration (plasma inosine; 5.0 hrs, Exp 2): 2 μMO
- Inosine Concentration (plasma inosine; 6.0 hrs, Exp 2): 0.5 μMO
- Inosine Concentration (plasma inosine; 8.0 hrs, Exp 2): 0.6 μMO
- Inosine Concentration (plasma inosine; 10.0 hrs, Exp 2): 0.3 μMO
- Inosine Concentration (plasma inosine; 24 hrs, Exp 1): 0.3 μMO
- pIC50 (CCRF-CEM Cells; 8-unsubstituted compounds): 6.22

- pIC50 (PNP (Calf spleen); [3]): 5.71
SMILES: Nc1nc2c(Cc3ccccc3O)c[nH]c2c(=O)[nH]1 [Example 3c, 2-amino-3,5-dihydro-7-(2-hydroxyphenylmethyl)-4H-pyrrolo[3,2-d]pyrimidin-4-one]

- pIC50 (PNP (Calf spleen); [3]): 5.64
SMILES: Nc1nc(O)c2[nH]cc(Cc3ccccc3Cl)c2n1 [Example 2m, 2-Amino-3,5-dihydro-7-(2-chlorophenylmethyl)-4H-pyrrolo[3,2-d]pyrimidin-4-one]

SMILES: Nc1nc2c(Cc3cccc(Cl)c3)c[nH]c2c(=O)[nH]1 [Example 1, 2-amino-3,5-dihydro-7-(3-chlorophenylmethyl)-4H-pyrrolo[3,2d-]pyrimidin-4-one]
- pIC50 (PNP (Calf spleen)): 6.85
- pIC50 (CCRF-CEM Cells; 8-unsubstituted compounds): 6.10

- pIC50 (PNP (Calf spleen); [3]): 6.00
SMILES: Nc1nc2c(Cc3ccc(Cl)c(Cl)c3)c[nH]c2c(=O)[nH]1 [Example 2i, 2-Amino-3,5-dihydro-7-(3,4-dichlorophenylmethyl)-4H-pyrrolo[3,2-d]pyrimidin-4-one]

- pIC50 (PNP (Calf spleen); [3]): 6.60
SMILES: Nc1nc2c(Cc3cccc(C(F)(F)F)c3)c[nH]c2c(=O)[nH]1 [Example 2h, 2-Amino-3,5-dihydro-7-(3-trifluoromethylphenylmethyl)-4H-pyrrolo[3,2-d]pyrimidin-4-one]
